From patent publication US10273279B2, “Protease activated receptor-1 (PAR1) derived cytoprotective polypeptides and related methods” (THE SCRIPPS RESEARCH INSTITUTE, priority 2011, dated 2019)
Changes are numbered by the printed parent chain.

Tests used:
[1] = target: T1, SEAP-PAR1 (Homo sapiens, UniProt P25116); assay: SEAP-PAR1 cleavage reporter on transfected HEK-293 cells (SEAP release); format: cell-based; conditions: cells containing wild-type EPCR
T1 construct: we created a full-length PAR-1 construct linked at the N-terminus to an alkaline phosphatase reporter group (SEAP); expressed in transfected cells
T1 sequence (P25116 22-425): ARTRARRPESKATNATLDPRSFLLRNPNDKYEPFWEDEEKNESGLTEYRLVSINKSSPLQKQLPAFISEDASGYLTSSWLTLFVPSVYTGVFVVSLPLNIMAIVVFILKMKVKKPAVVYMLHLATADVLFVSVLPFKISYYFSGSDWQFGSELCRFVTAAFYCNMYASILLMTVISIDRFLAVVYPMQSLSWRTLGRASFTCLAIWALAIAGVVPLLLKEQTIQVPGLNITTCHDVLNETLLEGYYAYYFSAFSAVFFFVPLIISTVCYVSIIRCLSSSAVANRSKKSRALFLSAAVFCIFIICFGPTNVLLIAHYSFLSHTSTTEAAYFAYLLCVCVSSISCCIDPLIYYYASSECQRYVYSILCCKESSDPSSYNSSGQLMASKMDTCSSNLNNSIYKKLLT
From the text: (§1) To facilitate analysis of APC-mediated PAR-1 activation, we created a full-length PAR-1 construct linked at the N-terminus to an alkaline phosphatase reporter group (SEAP). Selection of stable cell lines expressing both endothelial protein C receptor (EPCR) (wt or E86A) and SEAP-PAR1 allowed for a reliable and reproducible analysis of EPCR-dependent PAR-1 activation by APC. Mass-spec analysis of cleavage fragments generated by APC of a synthetic PAR-1 N-terminal tail peptide (TR33-62) identified both Arg^41 and Arg^46 as potential cleavage sites for APC proteolysis, as noted above. […] R41Q-SEAP-PAR1 was cleaved by APC in the presence of EPCR. This surprising result was also obtained for R41A-SEAP PAR1.
(§2) 2009; 113:5970-5978. SEAP-PAR1, either in the presence or absence of wt-EPCR, were transfected into HEK-293 cells to obtain stable cells expressing SEAP-PAR1 or wt-EPCR/SEAP-PAR1. Mutations in SEAP-PAR1 were introduced using the Quickchange method (Agilent). Cells were grown in 96-wells plates to confluency in Dulbeco's modified Eagle media (DMEM): Ham's F-12 (Invitrogen) supplemented with penicillin-streptomycin-glutamine (PSG) (Gibco) and 10% fetal bovine serum (Omega) in a humidified atmosphere at 37° C. and 5% CO2 Cells were washed with Hank's balanced salt solution (HBSS; Invitrogen) supplemented with 1.3 mM CaCl2, 0.6 mM MgCl2 and 0.1% endotoxin free BSA (Calbiochem) and incubated with APC. After 60 min, SEAP release was determined using 1-step PNPP (Pierce). Values were corrected for background activity derived from the same cells incubated in the absence of APC and expressed as a percentage of total SEAP available on the cell membrane.

[2] = target: T2, SEAP-PAR1 (Homo sapiens, UniProt P25116, R46Q); assay: as above; format: cell-based; conditions: cells with wt-EPCR
T2 construct: we created a full-length PAR-1 construct linked at the N-terminus to an alkaline phosphatase reporter group (SEAP); expressed in transfected cells
T2 sequence (P25116 22-425 R46Q): T1 sequence (P25116 22-425) with R25Q
From the text: as §1, §2

[3] = tested on: EA.hy.926 endothelial cells; assay: Staurosporine-induced endothelial cell apoptosis (Apopercentage dye); format: cell-based, human; conditions: 4 hrs pretreatment, 50 μM NPND, 50 μM scr-NPND or 10 μM TFLL, staurosporine 10 μM
Procedure: Activated Protein C (APC) conveys anti-apoptotic activity to EA.hy.926 cells that requires functional PAR1 receptor and APC binding to the endothelial protein C receptor (EPCR). See, e.g., Mosnier at al., Biochem J. 2003; 373:65-70; and Mosnier at al., Blood. 2007; 109:3161-3172.
Methods: EA.hy.926 cells (ATCC: CRL-2922) were grown in 24 well plates in DMEM (Invitrogen #12430) supplemented with glutamax (Invitrogen #35050) and 10% FBS (Hyclone #35-011-CV) in a 37° C. cell incubator with a humidified atmosphere and 5% CO2 in air until confluency. Cells were treated for 4 hrs with vehicle control, 50 μM NPND, 50 μM scr-NPND or 10 μM TFLL after which staurosporine (10 μM) and the Apopercentage dye (Biocolor) were added according the manufacturer's instructions. After 1 hr cells were washed with 2×1 ml PBS and 110 μl of the dye release agent was added to the cells. Subsequently 100 μl aliquots were transferred to a black 96 well plate and fluorescence was measured (530 nm excitation/580 nm emission). Apoptosis was expressed as a percentage of cells treated with 10 mM H2O2 for which apoptosis was set at 100%.

| Substance | cleavage of wt-PAR1 (SEAP-PAR1) [1] | cleavage of R46Q-SEAP-PAR1 [2] | inhibition of staurosporine-induced endothelial cell apoptosis [3] | inhibition of staurosporine-induced endothelial cell apoptosis ([3]; listed as NPND-peptide) |
| --- | --- | --- | --- | --- |
| APC: Activated Protein C, serine protease with anticoagulant and cytoprotective cell signaling activities | cleaved | did not eliminate PAR1 cleavage |  |  |
| GDENENEKPNWYELKEPDSF (scrambled sequence) [scr-TR47-66, control scrambled TR47-66 peptide containing scrambled residues 47-66, reference compound] |  |  | did not convey detectable anti-apoptotic effects |  |
| NPNDKYEPFWEDEEKNESGL (listed as Homo sapiens) [TR47-66] |  |  | significantly inhibited | inhibited staurosporine-induced endothelial cell apoptosis |
| thrombin | cleaved | efficient cleavage |  |  |
